Literature values as cited in patent US8303934B2, “Methods and compositions of [32P]-labeled adenine nucleotides for the treatment of atherosclerosis, vascular arterial diseases and coronary artery diseases” (priority 2011, dated 2012).

Test system: established human xenographed tumors
Conditions: established human xenografted tumors in athymic mice; low-level doses

Nc1ncnc2c1ncn2[C@@H]1O[C@H](COP(=O)(O)OP(=O)(O)OP(=O)(O)O)[C@@H](O)[C@H]1O [[32P]ATP, [32P]adenosine 5′-triphosphate]
activity as an anti-tumor cytotoxic agent: very active
